Where a name gives a salt, the structure may show the parent alone.
Biological target: T1, p110α Type Ia human PI3K (Homo sapiens, UniProt P42336)
T1 construct: full length DNA of each of the p110α, p110β and p110δ Type Ia human PI3K p110 isoforms; 6-His; made in house; host or cells: baculovirus expression system (Sf9 is named only for PI3Kγ)
Assay: Test (a) In Vitro PI3K Enzyme Assay (AlphaScreen)
Type: biochemical
Conditions: read-out: IC50 versus p110α PI3K
Source text: The assay used AlphaScreen technology (Gray et al., Analytical Biochemistry, 2003, 313: 234-245) to determine the ability of test compounds to inhibit phosphorylation by recombinant Type I PI3K enzymes of the lipid PI(4,5)P2.
DNA fragments encoding human PI3K catalytic and regulatory subunits were isolated from cDNA libraries using standard molecular biology and PCR cloning techniques. The selected DNA fragments were used to generate baculovirus expression vectors. In particular, full length DNA of each of the p110α, p110β and p110δ Type Ia human PI3K p110 isoforms (EMBL Accession Nos. HSU79143, S67334, Y10055 for p110α, p110β and p110δ respectively) were sub-cloned into a pDEST10 vector (Invitrogen Limited, Fountain Drive, Paisley, UK). The vector is a Gateway-adapted version of Fastbac1 containing a 6-His epitope tag. A truncated form of Type Ib human PI3K p110γ isoform corresponding to amino acid residues 144-1102 (EMBL Accession No. X8336A) and the full length human p85α regulatory subunit (EMBL Accession No. HSP13KIN) were also sub-cloned into pFastBac1 vector containing a 6-His epitope tag. The Type Ia p110 constructs were co-expressed with the p85α regulatory subunit. Following expression in the baculovirus system using standard baculovirus expression techniques, expressed proteins were purified using the His epitope tag using standard purification techniques.
DNA corresponding to amino acids 263 to 380 of human general receptor for phosphoinositides (Grp1) PH domain was isolated from a cDNA library using standard molecular biology and PCR cloning techniques. The resultant DNA fragment was sub-cloned into a pGEX 4T1 E. coli expression vector containing a GST epitope tag (Amersham Pharmacia Biotech, Rainham, Essex, UK) as described by Gray et al., Analytical Biochemistry, 2003, 313: 234-245). The GST-tagged Grp1 PH domain was expressed and purified using standard techniques.
Test compounds were prepared as […] stock solutions in DMSO and diluted into water as required to give a range of final assay concentrations. Aliquots (2 μl) of each compound dilution were placed into a well of a Greiner 384-well low volume (LV) white polystyrene plate (Greiner Bio-one, Brunel Way, Stonehouse, Gloucestershire, UK Catalogue No. 784075). […]
Biotinylated-DiC8-PI(3,4,5)P3 (50 nM; Cell Signals Inc., Catalogue No. 107), recombinant purified GST-Grp1 PH protein (2.5 nM) and AlphaScreen Anti-GST donor and acceptor beads (100 ng; Packard Bioscience Limited, Station Road, Pangbourne, Berkshire, UK, Catalogue No. 6760603M) were added and the assay plates were left for about 5 to 20 hours at room temperature in the dark. The resultant signals arising from laser light excitation at 680 nm were read using a Packard AlphaQuest instrument. […]

T1 sequence (P42336 whole entry, canonical isoform): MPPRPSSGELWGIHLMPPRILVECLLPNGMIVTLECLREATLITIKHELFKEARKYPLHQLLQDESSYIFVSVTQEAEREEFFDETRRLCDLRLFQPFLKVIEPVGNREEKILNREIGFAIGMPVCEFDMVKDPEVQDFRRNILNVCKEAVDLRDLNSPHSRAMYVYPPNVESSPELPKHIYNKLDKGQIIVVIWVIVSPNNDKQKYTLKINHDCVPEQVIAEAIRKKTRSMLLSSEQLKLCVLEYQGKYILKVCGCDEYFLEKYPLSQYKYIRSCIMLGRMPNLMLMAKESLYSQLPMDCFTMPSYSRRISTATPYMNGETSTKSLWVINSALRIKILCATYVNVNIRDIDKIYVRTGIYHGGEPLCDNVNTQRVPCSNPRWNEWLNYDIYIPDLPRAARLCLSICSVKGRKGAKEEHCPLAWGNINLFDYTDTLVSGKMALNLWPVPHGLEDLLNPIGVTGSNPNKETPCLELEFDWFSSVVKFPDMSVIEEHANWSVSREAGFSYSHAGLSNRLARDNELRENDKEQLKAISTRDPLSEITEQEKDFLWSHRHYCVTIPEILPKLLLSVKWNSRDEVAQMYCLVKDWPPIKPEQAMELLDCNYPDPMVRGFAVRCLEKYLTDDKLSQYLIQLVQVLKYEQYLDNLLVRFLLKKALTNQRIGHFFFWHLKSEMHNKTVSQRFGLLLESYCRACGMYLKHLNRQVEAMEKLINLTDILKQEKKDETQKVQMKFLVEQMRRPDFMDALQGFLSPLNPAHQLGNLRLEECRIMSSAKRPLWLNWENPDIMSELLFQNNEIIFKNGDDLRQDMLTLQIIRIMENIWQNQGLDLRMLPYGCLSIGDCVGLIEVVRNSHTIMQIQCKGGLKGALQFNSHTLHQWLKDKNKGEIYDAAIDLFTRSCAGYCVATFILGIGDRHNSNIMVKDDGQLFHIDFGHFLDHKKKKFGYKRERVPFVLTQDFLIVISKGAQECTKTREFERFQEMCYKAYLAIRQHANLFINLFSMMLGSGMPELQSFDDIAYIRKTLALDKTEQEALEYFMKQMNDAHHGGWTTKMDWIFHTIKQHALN
T1 sequence (P27986 whole entry partner, canonical isoform): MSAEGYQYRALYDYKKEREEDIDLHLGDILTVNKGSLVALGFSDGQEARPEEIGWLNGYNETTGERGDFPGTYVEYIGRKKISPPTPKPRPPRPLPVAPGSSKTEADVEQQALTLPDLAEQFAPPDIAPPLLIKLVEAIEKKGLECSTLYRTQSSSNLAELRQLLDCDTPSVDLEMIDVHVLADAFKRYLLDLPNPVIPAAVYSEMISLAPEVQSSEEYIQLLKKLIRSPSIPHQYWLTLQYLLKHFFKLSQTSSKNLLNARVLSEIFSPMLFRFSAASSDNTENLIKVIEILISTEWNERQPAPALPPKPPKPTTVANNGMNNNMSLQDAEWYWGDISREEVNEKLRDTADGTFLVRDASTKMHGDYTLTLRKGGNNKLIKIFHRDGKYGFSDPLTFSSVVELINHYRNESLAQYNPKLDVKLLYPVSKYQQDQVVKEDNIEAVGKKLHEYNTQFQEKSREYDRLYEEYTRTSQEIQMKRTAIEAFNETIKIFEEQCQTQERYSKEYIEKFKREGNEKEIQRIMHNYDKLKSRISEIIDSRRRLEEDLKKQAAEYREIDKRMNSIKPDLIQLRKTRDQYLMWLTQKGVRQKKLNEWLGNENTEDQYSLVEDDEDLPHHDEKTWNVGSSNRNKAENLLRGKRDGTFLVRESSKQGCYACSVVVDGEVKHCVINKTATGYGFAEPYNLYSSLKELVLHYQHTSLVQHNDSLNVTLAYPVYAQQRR

SMILES	IC50
CC(=O)Nc1nc(C)c(-c2cnc(Cl)c(NCc3ccc(F)cc3)c2)s1 [Compound No. 3 within Example 79, N-{5-[6-Chloro-5-(4-fluorobenzylamino)pyridin-3-yl]-4-methyl-1,3-thiazol-2-yl}acetamide]	~200 nM
CC(=O)Nc1nc(C)c(-c2cnc(Cl)c(S(=O)(=O)Nc3ccccc3)c2)s1 [Compound No. 4 within Example 73, N-{5-[6-Chloro-5-(N-phenylsulfamoyl)pyridin-3-yl]-4-methyl-1,3-thiazol-2-yl]acetamide]	~30 nM
CC(=O)Nc1nc(C)c(-c2cnc(Cl)c(NS(C)(=O)=O)c2)s1 [Example 28, N-[5-(6-Chloro-5-methylsulfonylaminopyridin-3-yl)-4-methyl-1,3-thiazol-2-yl]acetamide trifluoroacetate]	~10 nM
